Measurements: patent US6642217B2, “Triterpenes having human antifungal and antiyeast activity” (Naturtek, LLC, priority 2000, dated 2003)

Key:
Pityrosporum ovale [1] = test: Direct addition method, solid compound in Sabouraud dextrose agar; assay type: cell-based; parameters: key: +++: Maximum Fungal Growth; ++: Moderate Fungal Growth; +: Minimum Fungal Growth; +/−: Very little Fungal Growth; −: No Fungal Growth; settings: 4 mg/mL of agar; 12th day after inoculation
Procedure, shortened: (§1)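 Solid compound added to molten Sabouraud dextrose agar at 45 °C to a final 4 mg/ml, then set as slants and inoculated with fungus. Incubated at 25-28 °C for 10-12 days, with growth recorded every second day and read on day 12.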

Epidermophyton floccosum [2] = test: as above; assay type: cell-based; parameters: key: +++: Maximum Fungal Growth; ++: Moderate Fungal Growth; +: Minimum Fungal Growth; +/−: Very little Fungal Growth; −: No Fungal Growth; settings: 4 mg/mL of agar; 12th day after inoculation
Procedure, shortened: as §1

Microsporum canis [3] = test: as above; assay type: cell-based; parameters: key: +++: Maximum Fungal Growth; ++: Moderate Fungal Growth; +: Minimum Fungal Growth; +/−: Very little Fungal Growth; −: No Fungal Growth; settings: 4 mg/mL of agar; 12th day after inoculation
Procedure, shortened: as §1

Trichophyton rubrum [4] = test: as above; assay type: cell-based; settings: against Trichophyton rubrum
Procedure: (§2) Direct addition method. Sabouraud dextrose agar was prepared according to the manufacturer's instructions and 5.0 ml was dispensed in each 100×25 mm tube. The tubes were autoclaved. To each tube containing 5.0 ml of liquid agar at 45° C., 20 mg of solid test compound was added, to give a final concentration of 4 mg/ml. The agar was solidified in slants. The fungal cultures were then innoculated. The slants were incubated at 25-28 ° C. for 10-12 days, and the growth of the fungus was recorded every second day. The results in Table 2 indicate growth at the 12th day of inoculation.

Pityrosporum ovale [5] = test: Direct addition into the Pityrosporum agar; assay type: cell-based; parameters: key to Pityrosporum ovale growth: +++: Maximum Growth; ++: Moderate Growth; +: Minimum Growth; +/−: Very Little Growth; −: No Growth; settings: for Pityrosporum ovale growth: 4 mg/ml in the agar, 18 hours after inoculation
Procedure: Direct addition method. Sabouraud dextrose agar was prepared according to the manufacturer's instructions and 5.0 ml was dispensed in each 100×25 mm tube. The tubes were autoclaved. To each tube containing 5.0 ml of liquid agar at 45° C., 20 mg of solid test compound was added, to give a final concentration of 4 mg/ml. The agar was solidified in slants. The fungal cultures were then innoculated. […]

Microsporum audouinni [6] = test: Direct addition method, solid compound in Sabouraud dextrose agar; assay type: cell-based, Microsporum audouinii; parameters: key to Fungal growth: +++: Maximum Fungal Growth; ++: Moderate Fungal Growth; +: Minimum Fungal Growth; +/−: Very little Fungal Growth; −: No Fungal Growth; settings: 4 mg/mL of agar; 12th day after inoculation
Procedure, shortened: as §1

Trichophyton rubrum [7] = test: as above; assay type: cell-based; parameters: key: +++: Maximum Fungal Growth; ++: Moderate Fungal Growth; +: Minimum Fungal Growth; +/−: Very Little Fungal Growth; −: No Fungal Growth; settings: 4 mg/mL of agar; 12th day after inoculation
Procedure: as §2

Trichophyton tonsuran = test: Agar dilution method, growth on Sabouraud dextrose agar slants; assay type: cell-based, Trichophyton tonsurans; parameters: key: +++: Maximum Fungal Growth; ++: Moderate Fungal Growth; +: Minimum Fungal Growth; +/−: Very little Fungal Growth; −: No Fungal Growth; settings: 12th day after inoculation
Procedure, shortened: (§3)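 Compound in DMSO was mixed into molten Sabouraud dextrose agar at 45 °C to the final test concentrations, then set as slants and inoculated with the fungal culture. Slants were incubated 10–12 days at 25–28 °C, with growth scored every second day.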

Microsporum gypseum [8] = test: Summary of anti-fungal assays (direct addition, agar dilution, liquid culture); assay type: cell-based; settings: stated in words (Tables 1a/1b, text to Table 5)
Procedure: (§4) This example summarizes the results of various other assays of the anti-fungal activity of betulin derivatives. Table 5 summarizes results using different assay methods—direct addition, agar dilution, and direct addition to liquid culture, as disclosed in the previous three Examples. In some cases, only one type of assay was done with a compound. In other cases, the compound was tested by multiple assays.

Microsporum audouinii = test: as above; assay type: cell-based; settings: stated in words (Tables 1a/1b, text to Table 5)
Procedure: as §4

Trichophyton tonsurans = test: as above; assay type: cell-based; settings: stated in words (Tables 1a/1b, text to Table 5)
Procedure: as §4

Epidermophyton floccosum [9] = test: as above; assay type: cell-based; settings: stated in words (Tables 1a/1b, text to Table 5); listed as betulin-3,28-diphthalate
Procedure: as §4

[10] = tested on: Trichophyton mentagrophyte; test: Agar dilution method, growth on Sabouraud dextrose agar slants; assay type: cell-based, Trichophyton mentagrophytes; parameters: key to Fungal growth: +++: Maximum Fungal Growth; ++: Moderate Fungal Growth; +: Minimum Fungal Growth; +/−: Very little Fungal Growth; −: No Fungal Growth; settings: 12th day after inoculation
Procedure, shortened: as §3

Microsporum audouinni [11] = test: as above; assay type: cell-based, Microsporum audouinii; parameters: key: +++: Maximum Fungal Growth; ++: Moderate Fungal Growth; +: Minimum Fungal Growth; +/−: Very little Fungal Growth; −: No Fungal Growth; settings: 12th day after inoculation
Procedure, shortened: as §3

Epidermophyton floccosum [12] = test: as above; assay type: cell-based; parameters: key to Fungal growth: +++: Maximum Fungal Growth; ++: Moderate Fungal Growth; +: Minimum Fungal Growth; +/−: Very little Fungal Growth; −: No Fungal Growth; settings: for Fungal growth: 12th day after inoculation
Procedure, shortened: as §3

Microsporum gypseum [13] = test: as above; assay type: cell-based; parameters: key: +++: Maximum Fungal Growth; ++: Moderate Fungal Growth; +: Minimum Fungal Growth; +/−: Very little Fungal Growth; −: No Fungal Growth; settings: 12th day after inoculation
Procedure, shortened: as §3

Pityrosporum ovale [14] = test: as above; assay type: cell-based; parameters: key: +++: Maximum Fungal Growth; ++: Moderate Fungal Growth; +: Minimum Fungal Growth; +/−: Very little Fungal Growth; −: No Fungal Growth; settings: 12th day after inoculation
Procedure, shortened: as §3

Trichophyton rubrum [15] = test: as above; assay type: cell-based; parameters: key: +++: Maximum Fungal Growth; ++: Moderate Fungal Growth; +: Minimum Fungal Growth; +/−: Very little Fungal Growth; −: No Fungal Growth; settings: 12th day after inoculation
Procedure, shortened: as §3

Microsporum canis [16] = test: as above; assay type: cell-based; parameters: key: +++: Maximum Fungal Growth; ++: Moderate Fungal Growth; +: Minimum Fungal Growth; +/−: Very little Fungal Growth; −: No Fungal Growth; settings: 12th day after inoculation
Procedure, shortened: as §3

C=C(C)C1CCC2(COC(=O)C(N)C(C)C)CCC3(C)C(CCC4C5(C)CCC(OC(=O)C(N)C(C)C)C(C)(C)C5CCC43C)C12 [Betulin-3,28-di-L-valine]
+/−: Pityrosporum ovale growth (Pityrosporum ovale [5]) | Fungal growth (Trichophyton rubrum [7])
against Trichophyton rubrum: best anti-fungal or anti-yeast activity by the direct addition method (Trichophyton rubrum [4])
+: Fungal growth (Microsporum canis [3]) | Fungal growth (Microsporum audouinni [6])
−: Fungal growth (Pityrosporum ovale [1]) | Fungal growth (Epidermophyton floccosum [2])

C=C(C)[C@@H]1CC[C@]2(COC(=O)c3ccccc3C(=O)O)CC[C@]3(C)[C@H](CC[C@@H]4[C@@]5(C)CC[C@H](OC(=O)c6ccccc6C(=O)O)C(C)(C)[C@@H]5CC[C@]43C)[C@@H]12 [Betulin-3,28-diphthalate]
+++: Fungal growth (Trichophyton tonsuran; 125 μg/ml) | Fungal growth (Pityrosporum ovale [14]; 125 μg/ml) | Fungal growth (Pityrosporum ovale [14]; 250 μg/ml) | Fungal growth (Pityrosporum ovale [14]; 500 μg/ml)
Microsporum gypseum: Active against Microsporum gypseum (Microsporum gypseum [8])
+: Fungal growth ([10]; 250 μg/ml) | Fungal growth (Microsporum audouinni [11]; 250 μg/ml) | Fungal growth (Microsporum gypseum [13]; 250 μg/ml) | Fungal growth (Trichophyton rubrum [15]; 500 μg/ml) | Fungal growth (Microsporum canis [16]; 250 μg/ml)
−: Fungal growth (Trichophyton tonsuran; 1000 μg/ml) | Fungal growth ([10]; 500 μg/ml) | Fungal growth ([10]; 1000 μg/ml) | Fungal growth (Microsporum audouinni [11]; 500 μg/ml) | Fungal growth (Microsporum audouinni [11]; 1000 μg/ml) | Fungal growth (Epidermophyton floccosum [12]; 1000 μg/ml) | Fungal growth (Microsporum gypseum [13]; 500 μg/ml) | Fungal growth (Microsporum gypseum [13]; 1000 μg/ml) | Fungal growth (Trichophyton rubrum [15]; 1000 μg/ml) | Fungal growth (Microsporum canis [16]; 500 μg/ml) | Fungal growth (Microsporum canis [16]; 1000 μg/ml)
Trichophyton tonsurans: Active against Trichophyton tonsurans (Trichophyton tonsurans)
against Epidermophyton floccosum: Active against Epidermophyton floccosum (Epidermophyton floccosum [9]) | best antifungal or anti-yeast activity by the agar dilution method (Epidermophyton floccosum [12]; against Epidermophyton floccosum)
+/−: Fungal growth (Trichophyton tonsuran; 500 μg/ml) | Fungal growth (Epidermophyton floccosum [12]; 500 μg/ml)
++: Fungal growth (Trichophyton tonsuran; 250 μg/ml) | Fungal growth ([10]; 125 μg/ml) | Fungal growth (Microsporum audouinni [11]; 125 μg/ml) | Fungal growth (Epidermophyton floccosum [12]; 125 μg/ml) | Fungal growth (Epidermophyton floccosum [12]; 250 μg/ml) | Fungal growth (Microsporum gypseum [13]; 125 μg/ml) | Fungal growth (Pityrosporum ovale [14]; 1000 μg/ml) | Fungal growth (Trichophyton rubrum [15]; 125 μg/ml) | Fungal growth (Trichophyton rubrum [15]; 250 μg/ml) | Fungal growth (Microsporum canis [16]; 125 μg/ml)
Microsporum audouinii: Active against Microsporum audouinii (Microsporum audouinii)

C[C@@H]1[C@H](O)[C@@H](C)/C=C/C=C/CC/C=C/C=C/C=C/C=C/C(O[C@H]2O[C@H](C)[C@@H](O)[C@H](N)[C@@H]2O)CC2O[C@](O)(CC(O)C(O)CCC(O)CC(O)CC(O)CC(=O)O[C@H]1C)CC(O)C2C(=O)O (some centres unmarked) [Nystatin, reference compound]
−: Fungal growth (Trichophyton tonsuran; 500 μg/ml) | Fungal growth (Trichophyton tonsuran; 1000 μg/ml) | Fungal growth (Pityrosporum ovale [1]) | Fungal growth (Epidermophyton floccosum [2]) | Fungal growth (Microsporum canis [3]) | Fungal growth (Microsporum audouinni [6]) | Fungal growth ([10]; 500 μg/ml) | Fungal growth ([10]; 1000 μg/ml) | Fungal growth (Microsporum audouinni [11]; 125 μg/ml) | Fungal growth (Microsporum audouinni [11]; 250 μg/ml) | Fungal growth (Microsporum audouinni [11]; 500 μg/ml) | Fungal growth (Microsporum audouinni [11]; 1000 μg/ml) | Fungal growth (Epidermophyton floccosum [12]; 250 μg/ml) | Fungal growth (Epidermophyton floccosum [12]; 500 μg/ml) | Fungal growth (Epidermophyton floccosum [12]; 1000 μg/ml) | Fungal growth (Microsporum gypseum [13]; 500 μg/ml) | Fungal growth (Microsporum gypseum [13]; 1000 μg/ml) | Fungal growth (Pityrosporum ovale [14]; 500 μg/ml) | Fungal growth (Pityrosporum ovale [14]; 1000 μg/ml) | Fungal growth (Trichophyton rubrum [15]; 1000 μg/ml) | Fungal growth (Microsporum canis [16]; 500 μg/ml) | Fungal growth (Microsporum canis [16]; 1000 μg/ml)
+: Fungal growth (Trichophyton tonsuran; 125 μg/ml) | Fungal growth ([10]; 125 μg/ml) | Fungal growth ([10]; 250 μg/ml) | Fungal growth (Microsporum gypseum [13]; 125 μg/ml) | Fungal growth (Pityrosporum ovale [14]; 125 μg/ml) | Fungal growth (Trichophyton rubrum [15]; 125 μg/ml) | Fungal growth (Trichophyton rubrum [15]; 250 μg/ml) | Fungal growth (Microsporum canis [16]; 125 μg/ml)
+/−: Fungal growth (Trichophyton tonsuran; 250 μg/ml) | Pityrosporum ovale growth (Pityrosporum ovale [5]) | Fungal growth (Epidermophyton floccosum [12]; 125 μg/ml) | Fungal growth (Trichophyton rubrum [7]) | Fungal growth (Microsporum gypseum [13]; 250 μg/ml) | Fungal growth (Pityrosporum ovale [14]; 250 μg/ml) | Fungal growth (Trichophyton rubrum [15]; 500 μg/ml) | Fungal growth (Microsporum canis [16]; 250 μg/ml)
inhibits growth: Growth inhibition of Pityrosporum ovale by the direct addition method (Pityrosporum ovale [5]; 4 mg/ml)
